Reference: ChEMBL document CHEMBL1201862, “PubChem BioAssay data set” (2004)
Calls of active or inactive are those of the source.

What was measured:
[1] = target: T1, E3 ubiquitin-protein ligase XIAP (Homo sapiens, UniProt P98170); experiment: Counter Screen using XIAP-Bir3 for Chemical Antagonists of Bir1/2 domains of IAP-family anti-apoptotic proteins. [Related pubchem assays (depositor defined):AID1018, AID1449, AID1514, AID1638, AID1749, AID1750, AID488957, AID488963]
[2] = target: T1, E3 ubiquitin-protein ligase XIAP; experiment: XIAP antagonists, biochemical, IAP family, fluorescence polarization (AID 1018); assay type: functional
[3] = target: Protein-tyrosine kinase 2-beta (Homo sapiens, UniProt Q14289);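 further: potency of inhibitors of PYK2 kinase phosphorylation of poly-GT substrate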
[4] = target: Peroxisome proliferator-activated receptor gamma/Nuclear receptor coactivator 2 (Homo sapiens, UniProt P37231); experiment: (§1) TR-FRET dose response biochemical High Throughput Screening assay for agonists of the steroid receptor coactivator 2 (SRC-2) recruitment by the peroxisome proliferator-activated receptor gamma (PPAR gamma): non-selective agonists. [Related pubchem assays: 1297, 1032 ]; assay type: functional
[5] = target: Peroxisome proliferator-activated receptor gamma/Nuclear receptor coactivator 1 (Homo sapiens, UniProt P37231); experiment: as §1, with “1 (SRC-1)” for “2 (SRC-2)”, “assays (depositor defined):AID1300, AID1808, AID504735, AID631]” for “assays: 1297, 1032 ]”; assay type: protein assay
[6] = target: Peroxisome proliferator-activated receptor gamma/Nuclear receptor coactivator 3 (Homo sapiens, UniProt P37231); experiment: as §1, with “3 (SRC-3)” for “2 (SRC-2)”, “1301 (Confirmation screen.), 1048 (Primary screen.)]” for “1297, 1032 ]”; assay type: functional
Major prion protein = Major prion protein (Homo sapiens, UniProt P04156); assay type: functional, cell-based

| SMILES | IC50 [1] | IC50 [2] | IC50 [3] | EC50 [4] | EC50 [5] | EC50 [6] | IC50 (Major prion protein) |
| --- | --- | --- | --- | --- | --- | --- | --- |
| COc1ccc(OC)c(NS(=O)(=O)Cc2ccccc2)c1 | > 100 µM (inactive) | > 100 µM (not active) | 12 µM (not active) | – | – | – | – |
| CC(C)N(CC#CCC(O)(c1ccccc1)c1ccccc1)CCO | > 100 µM (inactive) | > 100 µM (not active) | – | – | – | – | – |
| CC(=O)CSc1nc(-c2cccs2)c(C#N)c(=O)[nH]1 | – | – | – | > 79.4 µM (not active) | > 79.4 µM (inactive) | > 79.4 µM (not active) | 2.27 µM (active) |
